# Measured values reported in patent publication US20230210834A1, “RNA METHYLTRANSFERASE INHIBITOR, SCREENING METHOD THEREFOR, ANTI-CANCER AGENT EFFICACY ASSESSMENT MARKER, AND KIT FOR EFFECTIVELY PREDICTING FTSJ1 INHIBITOR” (National University Corporation Okayama University, priority 2019, published 2023).
# Tests used:
# [1] = tested on: polyglutamine luciferase reporter; assay: Screening: polyglutamine luciferase reporter assay in NUGC3 cells (luminescence % of DMSO); type: cell-based, human; details: NUGC3 cells, luminescence relative to DMSO, concentration not given
# Method: (§1) Human gastric cancer cell line NUGC3 was cultured in a DMEM medium (high glucose with L-glutamine and phenol red, produced by FUJIFILM Wako Pure Chemical Corporation) containing 10% fetal bovine serum (produced by Thermo Fisher Scientific Inc.) and penicillin-streptomycin (produced by FUJIFILM Wako Pure Chemical Corporation) (this medium is simply referred to below as “DMEM+10% FBS+1×P/S”). Then, the NUGC3 cells were seeded in a 60-mm culture dish (produced by BioLite) so that the cells were 80% confluent after 24 hours. Subsequently, 5 μg of a reporter plasmid and 15 μL of a lipofection reagent (transIT-LT1, produced by Mirus Bio LLC) were mixed in 500 μL of Opti-MEM medium (produced by Thermo Fisher Scientific, Inc.) to form a complex, which was added to the medium in which the NUGC3 cells were cultured in the 60-mm culture dish. For use as the reporter plasmid, 5 μg of a polyglutamine luciferase reporter was introduced (in the polyglutamine luciferase reporter, a Renilla luciferase expressed in the IRES was located as an internal standard downstream of the sequence of a firefly luciferase sequence to which polyglutamine was added). Alternatively, a YAP/TAZ activity reporter was used by simultaneously introducing 3 μg of 8×GTIIC plasmid and 2 μg of a Renilla luciferase reporter as an internal standard. After another 24 hours, the cells were exfoliated with a 0.05 w/v % trypsin-0.53 mmol/l EDTA-4Na solution (produced by FUJIFILM Wako Pure Chemical Corporation), and then seeded in a 96-well plate (produced by BioLite) so that the cells were 80% confluent after 24 hours. Twenty-four hours after seeding in the 96-well plate, the medium in each well was replaced with 100 μL of a medium (DMEM+10% FBS+an antibiotic) containing 10 μM or 5 μM of a compound for evaluation. After another 24 hours, the medium containing the compound was removed, and the 96-well plate was transferred on ice. Each well was washed with 100 μL of phosphate buffer (PBS, produced by FUJIFILM Wako Pure Chemical Corporation). Thereafter, 20 μL of Passive Lysis Buffer (1×) contained in a Dual-Luciferase Reporter Assay System (produced by Promega Corporation) was added. The plate was then gently shaken for 15 minutes at room temperature to lyse the cells. After confirming that the cells were lysed, 10 μL of the lysate was transferred from each well to each corresponding well of a white 96-well plate (produced by Greiner Bio-one). To each well of the white 96-well plate was added 100 μL of a mixture of a Luciferase Assay Buffer II and Luciferase Assay Substrate contained in the Dual-Luciferase Reporter Assay System (produced by Promega Corporation), whereby the luminescence of the firefly luciferase was induced, and the luminescence intensity was detected with a microluminometer (produced by Berthold Japan K.K.). Subsequently, 100 μL of a mixture of Stop & Glo Buffer and Stop & Glo Substrate contained in the Dual-Luciferase Reporter Assay System (produced by Promega Corporation) was added, whereby the luminescence of firefly luciferase was quenched while the luminescence of Renilla luciferase was induced, and the luminescence intensity was detected with a microluminometer (produced by Berthold Japan K.K.) in a manner similar to the above. The ratio of the luminescence intensity of the firefly luciferase and the luminescence intensity of the Renilla luciferase was calculated, and the luminescence intensity (%) of the wells containing each compound was calculated with the luminescence intensity of the well containing DMSO (dimethyl sulfoxide, used as a solvent for the compound liquids) taken as 100%. […] Unless otherwise specified, the measured values in the table represent the results obtained by evaluation with the addition of 10 μM of each compound for evaluation.
# [2] = tested on: YAP/TAZ; assay: Screening: YAP/TAZ activity reporter (8xGTIIC plasmid) assay in NUGC3 cells (luminescence % of DMSO); type: cell-based, human; details: NUGC3 cells, luminescence relative to DMSO, concentration not given
# Method: as §1
# [3] = polyglutamine luciferase reporter
# [4] = YAP/TAZ activity reporter (8×GTIIC)
Compound,"Polyglutamine [1, 3] [%]","8×GTIIC [2, 4] [%]",Polyglutamine [1] [%],8×GTIIC [2] [%]
"Cc1ccc(C)c(S(=O)(=O)CC2CCC(C3CC3)CC2)c1 (single isomer, unassigned) [SA005]",76.08,90.78,–,–
"Cc1ccc(C)c(S(=O)(=O)C2CCC(CS(=O)(=O)c3ccccc3)CC2)c1 (single isomer, unassigned) [SA014]",72.95,93.69,–,–
"Cc1ccc(C)c(S(=O)(=O)C2CCC(CS(=O)(=O)c3ccccc3)CC2)c1 (single isomer, unassigned) [SA015]",60.36,69.21,–,–
CCc1ccc(OC)cc1C1CC(c2ccc(C)cc2)=NC1S(=O)(=O)c1ccc(C)cc1 (stereo not shown) [PVZF0043],–,–,35.33,36.69
CCc1cccc(C2CC(c3ccccc3)=NC2S(=O)(=O)c2ccccc2)c1CC (stereo not shown) [PVZF0046],–,–,47.04,54.68
CCc1cccc(C2CC(c3cccc(C)c3)=NC2S(=O)(=O)c2ccccc2)c1CC (stereo not shown) [PVZF0049],–,–,67.85,91.32
CCc1cccc(C2CC(c3ccccc3)=NC2S(=O)(=O)c2ccccc2C)c1CC (stereo not shown) [PVZF0050],–,–,58.65,106.2
CCc1cccc(C2CC(c3ccc(C)cc3)=NC2S(=O)(=O)c2ccccc2C)c1CC (stereo not shown) [PVZF0051],–,–,40.74,36.59
CCc1ccc(C2=NC(S(=O)(=O)c3ccccc3)C(c3cccc(CC)c3CC)C2)cc1CC (stereo not shown) [PVZF0052],–,–,71.62,54.38
CCc1cc(OC)cc(C2=NC(S(=O)(=O)c3ccccc3)C(c3cccc(CC)c3CC)C2)c1 (stereo not shown) [PVZF0053],–,–,68.68,58.96
CCc1ccc(C2=NC(S(=O)(=O)c3ccccc3)C(c3cccc(CC)c3CC)C2)c(CC)c1 (stereo not shown) [PVZF0054],–,–,56.4,49.48
CCc1cc(CC)cc(C2=NC(S(=O)(=O)c3ccc(C)cc3)C(c3cccc(CC)c3CC)C2)c1 (stereo not shown) [PVZF0055],–,–,46.42,45.63
CCc1cccc(C2CC(c3ccc(C)cc3)=NC2S(=O)(=O)c2ccccc2)c1CC (stereo not shown) [PVZF0056],–,–,48.33,53.76
CCc1cccc(C2CC(c3ccc(C)cc3)=NC2S(=O)(=O)c2ccc(C)cc2)c1CC (stereo not shown) [PVZF0057],–,–,50.71,61.81
CCc1cccc(C2CC(c3cccc(C)c3)=NC2S(=O)(=O)c2ccccc2C)c1CC (stereo not shown) [PVZF0058],–,–,54.21,66.66
CCc1cccc(C2CC(c3ccc(C)cc3)=NC2S(=O)(=O)c2ccccc2C)c1CC (stereo not shown) [PVZF0059],–,–,43.94,38.46
CCc1ccccc1C1CC(c2ccc(C)cc2)=NC1S(C)(=O)=O (stereo not shown) [PVZF0060],–,–,38.44,44.13
CCc1cccc(C2CC(c3ccc(C)cc3)=NC2S(C)(=O)=O)c1 (stereo not shown) [PVZF0061],–,–,69.94,121.9
Cc1ccc(C2=NC(S(=O)(=O)c3ccccc3C)C(c3cccc(C)c3)C2)cc1 (stereo not shown) [PVZF0062],–,–,54.91,73.79
CCc1ccccc1C1CC(c2ccc(C)cc2)=NC1S(=O)(=O)c1ccccc1 (stereo not shown) [PVZF0063],–,–,43.6,56.3
Cc1ccc(C2=NC(S(=O)(=O)c3ccccc3C)C(c3ccc(C)cc3)C2)cc1 (stereo not shown) [PVZF0064],–,–,58.28,93.3

Compound,"Polyglutamine [1, 3] [%]","8×GTIIC [2, 4] [%]",Polyglutamine [1] [%],8×GTIIC [2] [%]
CCc1ccccc1C1CC(c2ccc(C)cc2)=NC1S(=O)(=O)c1ccccc1C (stereo not shown) [PVZF0065],–,–,48.96,67.6
CCc1ccc(C2CC(c3ccc(C)cc3)=NC2S(=O)(=O)c2ccccc2)cc1CC (stereo not shown) [PVZF0066],–,–,56.14,65.56
CCc1ccc(CC)c(C2CC(c3ccc(C)cc3)=NC2S(=O)(=O)c2ccccc2C)c1 (stereo not shown) [PVZF0067],–,–,32.14,34.58
CCc1cccc(C2CC(c3ccccc3)=NC2S(=O)(=O)c2ccc(C)cc2)c1CC (stereo not shown) [PVZF0068],–,–,39.33,51.65
CCc1cccc(C2CC(c3ccc(C)cc3)=NC2S(=O)(=O)c2ccc(C)cc2)c1CC (stereo not shown) [PVZF0069],–,–,46.34,49.99
Cc1ccc(C2=NC(S(=O)(=O)c3ccc(C)cc3)C(c3ccccc3)C2)cc1 (stereo not shown) [PVZF0072],–,–,60.73,76.88
Cc1ccc(C2=NC(S(=O)(=O)c3ccccc3)C(c3ccc(C)cc3)C2)cc1 (stereo not shown) [PVZF0073],–,–,60.62,86.43
Cc1ccc(C2=NC(S(=O)(=O)c3ccccc3)C(c3ccccc3C)C2)cc1 (stereo not shown) [PVZF0074],–,–,79.16,96.63
CCc1cccc(C2CC(c3ccc(C)cc3)=NC2S(C)(=O)=O)c1CC (stereo not shown) [PVZF0079],–,–,53.25,79.74
CCc1ccc(C2=NC(S(=O)(=O)c3ccc(C)cc3)C(c3cccc(CC)c3CC)C2)cc1CC (stereo not shown) [PVZF0081],–,–,57.42,56.18
Cc1ccc(C2=NC(S(C)(=O)=O)C(c3ccc(C)cc3)C2)cc1 (stereo not shown) [PVZF0082],–,–,87.78,172.9
CCc1ccc(C2CC(c3ccc(C)cc3)=NC2S(C)(=O)=O)cc1 (stereo not shown) [PVZF0083],–,–,57.89,104.5
Cc1ccc(C2=NC(S(C)(=O)=O)C(c3ccc(C(C)C)cc3)C2)cc1 (stereo not shown) [PVZF0084],–,–,71.08,146.9
Cc1ccc(C2=NC(S(=O)(=O)c3ccccc3)C(c3ccc(C)cc3)C2)cc1 (stereo not shown) [PVZF0086],–,–,58.32,57.06
Cc1ccc(C2=NC(S(C)(=O)=O)C(c3ccc(C)cc3)C2)cc1 (stereo not shown) [PVZF0087],–,–,81.35,187.1
CCc1ccc(C2CC(c3ccc(C)cc3)=NC2S(=O)(=O)c2ccccc2)cc1 (stereo not shown) [PVZF0089],–,–,67.1,70.13
CCc1ccccc1C1CC(c2ccc(C)cc2)=NC1S(=O)(=O)c1ccc(C)cc1 (stereo not shown) [PVZF0091],–,–,34.27,40.68
CCc1ccc(C2CC(c3ccc(C)cc3)=NC2S(=O)(=O)c2ccc(C)cc2)cc1 (stereo not shown) [PVZF0092],–,–,48.91,54.44
CC(=O)c1cccc(C2CC(c3ccc(C)cc3)=NC2S(=O)(=O)c2ccccc2)c1 (stereo not shown) [PVZF0093],–,–,45.45,59.77
Cc1ccc(C2=NC(S(=O)(=O)c3ccc(C)cc3)C(c3ccccc3C)C2)cc1 (stereo not shown) [PVZF0094],–,–,69.05,97.79
